Results taken from publication PMC3784060 (Cancer Chemotherapy and Pharmacology, 2013).

Experiment: plasma pharmacokinetics (HPLC-MS/MS, population PK model)
Conditions: human, intravenous
Procedure: Blood samples for PK evaluations (3 mL each) were collected into prechilled K2 EDTA tubes at 0, 0.25–0.5, 1–2, and 4 h after the end of the 2-h infusion on day 1 of cycles 1, 2, and 3. Samples were kept on ice and centrifuged within 1 h of collection at 2,700g/4 °C for 10 min; separated plasma was immediately frozen on dry ice and then stored at −20 °C or below.
A 2-compartment PPK model was developed with data from two phase I studies in solid tumors [31, 32]. The model fits were conducted using NONMEM V, level 1.1 (GloboMax LLC), and a first-order conditional estimation method was employed for all model runs. The model included between-subject variability on clearance and volume of distribution, and mixed error terms.

Cmax: > 4 µM | concentration at 2 h (40 mg/m^2): 1010 ng/mL | concentration at 2.25 h (40 mg/m^2): 1100 ng/mL | concentration at 4 h (40 mg/m^2): 118 ng/mL | concentration at 6 h (40 mg/m^2): 42.4 ng/mL | AUC (50 mg/m^2): 3560 ng·h/mL | concentration at 2.25 h (50 mg/m^2): 707 ng/mL | concentration at 2.5 h (50 mg/m^2): 354 ng/mL | concentration at 3 h (50 mg/m^2): 195 ng/mL | concentration at 4 h (50 mg/m^2): 139 ng/mL | concentration at 6 h (50 mg/m^2): 36.7 ng/mL | AUC (70 mg/m^2): 4980 ng·h/mL | concentration at 2 h (70 mg/m^2): 1700 ng/mL | concentration at 2.25 h (70 mg/m^2): 724 ng/mL | concentration at 2.5 h (70 mg/m^2): 457 ng/mL | concentration at 3 h (70 mg/m^2): 307 ng/mL | concentration at 4 h (70 mg/m^2): 125 ng/mL | concentration at 6 h (70 mg/m^2): 52.2 ng/mL
SMILES: CCc1cnn2c(NCc3ccc[n+]([O-])c3)cc(N3CCCC[C@H]3CCO)nc12 [Dinaciclib]
